Key:
[1] = tested on: pea mutant rms1; experiment: Inhibition of branching in the pea, application directly on the axillary bud; format: in vivo, Pisum sativum L.; conditions: for activity (length of bud/branch at node 3, 8 days after treatment at node 3): mean of 24 plants
Description: Generally, in the pea, the first two scales are considered to be the first two nodes, the cotyledonary node being node 0.
The rms1 mutant is an “SMS” signal biosynthesis mutant, repressing branching of the plant.
Tests for activity on the inhibition of branching were carried out in the following way.
The strigolactone-deficient rms1 (ccd8) pea mutants described in Beveridge et al., 1997, were used for the test (M3T884 line derived from the Térèse variety).
The activity of the compounds (IIa), (II′d) and (II′e) in accordance with the invention and of the comparative compound GR24 was evaluated at respective doses of 10 nM, 100 nM and 1 μM, by treatment at node 3. […]
24 plants were sown per treatment. 8 days after sowing, the treatment was carried out on the axillary bud at node 3, by application of 10 μl of each solution to be tested, directly on the bud, by means of a micropipette. The lateral outgrowths at nodes 1 and 2 were removed in order to encourage the growth of the axillary buds at the higher nodes. […]
The activity of the compounds (IIa), (IIb), (IIc), (II′d), (II′e) and (II′f) in accordance with the invention was evaluated at respective doses of 100 nM and 1 μM, by treatment at node 3.
For this, solutions containing each compound to be tested, in 1% acetone, 4% propylene glycol 1450 and 50% ethanol, were used.
The activity of the compounds (IIa), (IIIa), (IIIb) and (IIIc) in accordance with the invention, and also of GR24 as comparative compound, was evaluated at respective doses of 100 nM and 1 μM, by treatment at node 3, according to the protocol described above with reference to experiment 2.
A sample consisting only of the solvent, and without active compound, was also tested as negative control, termed “CTL 0”.
In this experiment, the activity of the compound (IIIa) in accordance with the invention, and also of GR24 as comparative compound, was evaluated at respective doses of 1 nM, 10 nM, 100 nM and 1 μM, by treatment at node 3, according to the protocol described above with reference to experiment 2, for doses of 10 nM, 100 nM and 1 μM of compounds.
A sample consisting only of the solvent, and without active compound (“CTL 0”) was also tested as a negative control. A nontreated (“NT”) control was also carried out.
(§1) A dose-response test for evaluating the activity of the compounds by deposition at node 3 was carried out according to the protocol described above with reference to experiment 2, for the compound in accordance with the invention (IIa) and for the comparative compounds GR24, Comp. 3 and Comp. 4. Concentrations of 10 nM, 100 nM and 1 μM were tested.
A sample consisting only of the solvent, and without active compound (“CTL 0”), was also tested as a negative control. A nontreated (“NT”) control was also carried out.
as §1, with “Comp. 5” for “Comp. 3”, “Comp. 6.” for “Comp. 4.”, “10 nM and” for “10 nM,”, “nM” for “nM and 1 μM”, “tested. […]” for “tested.”
The sprouting of the axillary buds at node 4 was measured 8 days after the treatment by means of a digital sliding caliper.
The activity of the compound (IIIa) in accordance with the invention on bud growth at node 3 was evaluated at a dose of 1000 nM by treatment at node 3. The GR24 compound was tested at the same concentration as comparative compound. […]

[2] = tested on: pea rms1 mutants; experiment: Hydroponic culture test in pea; format: in vivo, Pisum sativum L.; conditions: 1 μM in hydroponic culture solution, 8 days
Description: For this example, ramosus (rms1) hyperbranched pea (Pisum sativum L.) mutants were used.
More particularly, rms1 (rms1-10) hyperbranched mutant plants were used. The nutritive solution (100%) was prepared by adding the following macronutrients to 1000 l of water: HNO3 (0.28 l), (NH4)2HPO4 (120 g), Ca(NO3)2 (40 g), Mg(NO3)2 (140 g), KNO3 (550 g), (NH4)2MoO4 (0.05 g), H3BO3 (15 g), MnSO4.H2O (2 g), ZnSO4.7H2O (1 g), CuSO4.5H2O (0.25 g), Sequestrene® (10 g) (Fe-EDTA solution). The pea seeds were germinated in moist sand for 6 days, then placed in holes of a lid (35 holes/lid, 20 mm in diameter) of an opaque PVC pot containing the hydroponic culture solution (47 l, pH 5.8).
In a first experiment, acetone or the compound to be tested (dissolved in acetone) was added to the hydroponic culture solution so as to obtain a final concentration of 0 or 1 μM of compound to be tested and 0.01% of acetone.
The hydroponic culture solution was continually aerated by means of an aquarium pump and replaced each week. 8 days after the start of the treatment, the lengths of bud/branch (nodes 1 to 6) were measured with an electronic sliding caliper.
This experiment was carried out for the compounds according to the invention (IIa) and (IIIb), and also the GR24 compound as comparative compound. A negative control (<<CTL 0>>), corresponding to a treatment with the solvent alone, was also carried out.
The results (mean data on 20 plants), in terms of, on the one hand, length of the branches at nodes 3 to 5 and, on the other hand, plant height, are shown respectively in FIGS. 11 and 12.
The same experiment was carried out for the compound in accordance with the invention (II″g) and the comparative compound GR24. Dimethyl sulfoxide (DMSO) or the compound to be tested, dissolved in DMSO, was added to the hydroponic culture solution so as to obtain a final concentration of 0 or 3 μM of compound to be tested and 0.01% of DMSO.
The results (mean data on 10 to 12 plants), in terms, on the one hand, of length of the branches at nodes 3 to 4 and, on the other hand, of plant height, are shown respectively in FIGS. 13 and 14.

Compound: CC1=C(C)C(Sc2ccc(Cl)cc2)OC1=O (stereo not shown) [Compound (IIa), 5-((4-chlorophenyl)thio)-3,4-dimethylfuran-2(5H)-one]
- inhibitory activity on bud growth (length of bud/branch at node 3, 8 days after treatment at node 3) ([1]; Experiment 1, FIG. 3, 10 nM, 100 nM, 1 μM, at the highest concentrations): inhibitory activity on bud growth which is greater than that of the comparative compound GR24
- inhibitory activity on bud growth (length of bud/branch at node 3, 8 days after treatment at node 3) ([1]; Experiment 2, FIG. 4, 100 nM and 1 μM): most active
- bud growth inhibition (length of bud/branch at node 3, 8 days after treatment at node 3) ([1]; Experiment 3, FIG. 5, 100 nM and 1 μM): activity similar to that of the comparative compound GR24
- activity (length of bud/branch at node 3, 8 days after treatment at node 3) ([1]; Experiment 5, FIG. 7, 10 nM, 100 nM and 1 μM): activity which is greater than the comparative compounds provided by the prior art, Comp. 3 and Comp. 4, this being at all the doses tested
- activity (length of bud/branch at node 3, 8 days after treatment at node 3) ([1]; Experiment 6, FIG. 8, 10 nM and 100 nM): activity which is greater than the comparative compounds provided by the prior art, Comp. 5 and Comp. 6, this being at all the doses tested
- length of the branches at nodes 3 to 5 ([2]; FIG. 11): activity of the compounds in accordance with the invention (IIa) and (IIIb) on all the branches of nodes 3 to 5
- plant height ([2]; FIG. 12): significant effect on plant height is also demonstrated, comparable between the comparative compound GR24 and the compound in accordance with the invention (IIa)

Reference: patent US9532569B2 (INSTITUT NATIONAL DE LA RECHERCHE AGRONOMIQUE, priority 2012, dated 2017)
